Test results from patent publication US10758534B2 (Vertex Pharmaceuticals Incorporated, priority 2014, dated 2020).
Like-named read-outs stand apart in the source and are kept apart here.

Target: T1, F508del (Homo sapiens, UniProt P13569, DEL508-508)
T1 construct: expressed in transfected cells
Assay: Protocol 2: FRET membrane potential optical assay (VIPR), identification of correction compounds
Format: cell-based
Source text: Membrane potential optical methods for assaying F508del modulation properties of compounds.
These voltage sensitive assays are based on the change in fluorescence resonant energy transfer (FRET) between the membrane-soluble, voltage-sensitive dye, DiSBAC2(3), and a fluorescent phospholipid, CC2-DMPE, which is attached to the outer leaflet of the plasma membrane and acts as a FRET donor. Changes in membrane potential (Vm) cause the negatively charged DiSBAC2(3) to redistribute across the plasma membrane and the amount of energy transfer from CC2-DMPE changes accordingly. The changes in fluorescence emission were monitored using VIPR™ II, which is an integrated liquid handler and fluorescent detector designed to conduct cell-based screens in 96- or 384-well microtiter plates.
To identify small molecules that correct the trafficking defect associated with F508del; a single-addition HTS assay format was developed. The cells were incubated in serum-free medium for 16 hrs at 37° C. in the presence or absence (negative control) of test compound. As a positive control, cells plated in 384-well plates were incubated for 16 hrs at 27° C. to “temperature-correct” F508del. The cells were subsequently rinsed 3× with Krebs Ringers solution and loaded with the voltage-sensitive dyes. To activate F508del, 10 μM forskolin and the CFTR potentiator, genistein (20 μM), were added along with Cl^−-free medium to each well. The addition of Cl^−-free medium promoted Cl^− efflux in response to F508del activation and the resulting membrane depolarization was optically monitored using the FRET-based voltage-sensor dyes.
• Bath Solution #1: (in mM) NaCl 160, KCl 4.5, CaCl2 2, MgCl2 1, HEPES 10, pH 7.4 with NaOH. • Chloride-free bath solution: Chloride salts in Bath Solution #1 (above) are substituted with gluconate salts. • CC2-DMPE: Prepared as a 10 mM stock solution in DMSO and stored at −20° C. • DiSBAC2(3): Prepared as a 10 mM stock in DMSO and stored at −20° C. Cell Culture
NIH3T3 mouse fibroblasts stably expressing F508del are used for optical measurements of membrane potential. The cells are maintained at 37° C. in 5% CO2 and 90% humidity in Dulbecco's modified Eagle's medium supplemented with 2 mM glutamine, 10% fetal bovine serum, 1×NEAA, β-ME, 1× pen/strep, and 25 mM HEPES in 175 cm^2 culture flasks. For all optical assays, the cells were seeded at 30,000/well in 384-well matrigel-coated plates and cultured for 2 hrs at 37° C. before culturing at 27° C. for 24 hrs for the potentiator assay. For the correction assays, the cells are cultured at 27° C. or 37° C. with and without compounds for 16-24 hours.

[1] = F508del CFTR modulator activity, compounds of Table 1
[2] = F508del CFTR modulator activity, compounds of Table 1, read-out: EC30
[3] = Table 3, compounds of Table 1 as modulators of CFTR activity, protocol not stated

T1 sequence (P13569 with tags, fused parts or gaps DEL508-508): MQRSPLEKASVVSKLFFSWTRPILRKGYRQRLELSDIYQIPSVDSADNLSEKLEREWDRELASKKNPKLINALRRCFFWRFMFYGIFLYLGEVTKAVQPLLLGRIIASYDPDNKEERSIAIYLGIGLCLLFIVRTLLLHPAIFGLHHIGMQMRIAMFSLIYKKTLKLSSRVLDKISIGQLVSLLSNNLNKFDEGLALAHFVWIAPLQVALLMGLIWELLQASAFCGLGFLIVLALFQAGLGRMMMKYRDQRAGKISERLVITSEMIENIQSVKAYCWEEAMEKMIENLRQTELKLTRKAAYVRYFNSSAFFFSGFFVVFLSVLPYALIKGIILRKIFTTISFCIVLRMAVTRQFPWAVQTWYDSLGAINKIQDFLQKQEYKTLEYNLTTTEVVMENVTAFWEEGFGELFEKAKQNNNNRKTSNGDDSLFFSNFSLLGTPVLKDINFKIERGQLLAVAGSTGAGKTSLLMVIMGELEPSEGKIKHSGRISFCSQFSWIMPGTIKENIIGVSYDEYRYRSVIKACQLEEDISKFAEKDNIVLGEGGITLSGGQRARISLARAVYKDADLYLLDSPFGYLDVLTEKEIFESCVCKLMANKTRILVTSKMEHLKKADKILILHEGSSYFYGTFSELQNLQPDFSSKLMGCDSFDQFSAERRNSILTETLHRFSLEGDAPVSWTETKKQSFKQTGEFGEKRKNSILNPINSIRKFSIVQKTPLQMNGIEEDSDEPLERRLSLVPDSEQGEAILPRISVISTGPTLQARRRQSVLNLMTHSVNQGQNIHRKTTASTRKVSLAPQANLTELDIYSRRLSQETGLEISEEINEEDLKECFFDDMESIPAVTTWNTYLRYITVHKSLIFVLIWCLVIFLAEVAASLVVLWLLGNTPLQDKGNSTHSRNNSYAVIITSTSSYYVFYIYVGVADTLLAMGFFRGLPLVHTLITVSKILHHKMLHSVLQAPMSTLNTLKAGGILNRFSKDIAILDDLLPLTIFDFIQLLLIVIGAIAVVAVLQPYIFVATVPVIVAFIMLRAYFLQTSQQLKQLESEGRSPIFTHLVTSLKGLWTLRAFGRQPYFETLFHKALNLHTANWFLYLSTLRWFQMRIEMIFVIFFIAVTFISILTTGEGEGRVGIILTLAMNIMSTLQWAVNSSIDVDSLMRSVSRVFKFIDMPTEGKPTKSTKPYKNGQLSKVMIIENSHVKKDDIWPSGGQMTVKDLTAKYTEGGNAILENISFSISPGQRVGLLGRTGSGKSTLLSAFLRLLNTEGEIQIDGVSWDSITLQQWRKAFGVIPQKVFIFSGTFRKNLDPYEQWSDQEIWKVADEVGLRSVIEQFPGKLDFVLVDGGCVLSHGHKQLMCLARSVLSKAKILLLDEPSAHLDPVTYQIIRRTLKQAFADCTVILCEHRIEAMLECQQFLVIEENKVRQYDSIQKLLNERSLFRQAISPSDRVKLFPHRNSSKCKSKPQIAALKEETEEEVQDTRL

| Structure (SMILES) | EC30 [2] [µM] | EC30 [3] | further results |
| --- | --- | --- | --- |
| CC(C)COc1cc(F)cc(-c2ccc(C(=O)NS(=O)(=O)c3cccc(N)n3)c(N3CC(C)CC34CCC4)n2)c1 (single isomer, unassigned) [Compound 2552, N-[(6-amino-2-pyridyl)sulfonyl]-6-(3-fluoro-5-isobutoxy-phenyl)-2-(6-methyl-8-azaspiro[3.4]octa N-8-yl)pyridine-3-carboxamide] |  |  | EC30 [1]: +++ (“+++” means <3 uM) |
| CC(C)(C)c1ccc(C(=O)NS(=O)(=O)c2cccc(N)n2)c(N2CCC(C3CC3)C2(C)C)n1 (single isomer, unassigned) [Compound 2577, N-[(6-amino-2-pyridyl)sulfonyl]-6-tert-butyl-2-(3-cyclopropyl-2,2-dimethyl-pyrrolidin-1-yl)pyridine-3-carboxamide] |  |  | EC30 [1]: +++ (“+++” means <3 uM) |
| Nc1cccc(S(=O)(=O)NC(=O)c2cccnc2N2CCCC(c3ccccc3)C2)n1 (single isomer, unassigned) [Compound 2615] | 3 to 10 |  |  |
| C[C@@H]1CN(c2nc(C(C)(C)C)c(C(O)C(O)C3CCCC3)cc2C(=O)NS(=O)(=O)c2cccc(N)n2)C(C)(C)C1 (single isomer, unassigned) [Compound 2661] | < 3 |  |  |
| C[C@@H]1CN(c2nc(C3CCCCO3)ccc2C(=O)NS(=O)(=O)c2cccnc2N)C(C)(C)C1 (single isomer, unassigned) [Compound 2672] | < 3 |  |  |
| CC1CN(c2ncccc2C(=O)NS(=O)(=O)c2cccc(N(C)C(C)C)n2)C(C)(C)C1 (single isomer, unassigned) [Compound 2724] | < 3 |  |  |
| CC1CN(c2ncccc2C(=O)NS(=O)(=O)c2cccc(OC3CCC[C@@H]3C)n2)C(C)(C)C1 (stereo in doubt) [Compound 2109, N—[[6-[(1S,2S)-2-methylcyclopentoxy]-2-pyridyl]sulfonyl]-2-(2,2,4-trimethylpyrrolidin-1-yl)pyridine-3-carboxamide] | < 3 |  |  |
| Cc1cc(C)c(Oc2nc(Cc3ccccc3)ccc2C(=O)NS(=O)(=O)c2cccc(N)n2)c(C)c1 [Compound 1, N-[(6-amino-2-pyridyl)sulfonyl]-6-benzyl-2-(2,4,6-trimethylphenoxy)pyridine-3-carboxamide] |  | +++ (“+++” means <3 uM) |  |
| Cc1cccc(C)c1Cn1c(C(=O)NS(=O)(=O)c2ccccc2)cc2ccccc21 [Compound 2, N-(benzenesulfonyl)-1-[(2,6-dimethylphenyl)methyl]indole-2-carboxamide] |  | +++ (“+++” means <3 uM) |  |
| CC(C)(C)c1cc(C(=O)NS(=O)(=O)c2ccccc2)n(Cc2cc(F)ccc2C(F)(F)F)n1 [Compound 3, 3-(tert-butyl)-1-(5-fluoro-2-(trifluoromethyl)benzyl)-N-(phenylsulfonyl)-1H-pyrazole-5-carboxamide] |  | +++ (“+++” means <3 uM) |  |
| COC(=O)C(C(=O)c1cc(C(C)(C)C)nn1Cc1c(C)cccc1C)S(=O)(=O)c1ccccc1 (centres unmarked) [Compound 4, Methyl 2-(benzenesulfonyl)-3-[5-tert-butyl-2-[(2,6-dimethylphenyl)methyl]pyrazol-3-yl]-3-oxo-propanoate] |  | + (“+” means greater than 10 uM) |  |
| Cc1ccc(-c2nc(C(C)(C)C)ccc2C(=O)NS(=O)(=O)c2cccc(N)c2)c(C)c1 [Compound 5, N-(3-aminophenyl)sulfonyl-6-tert-butyl-2-(2,4-dimethylphenyl)pyridine-3-carboxamide] |  | ++ (“++” means between 3 uM and 10 uM) |  |
| Cc1cc(C)c(CN2Cc3ccccc3C2C(=O)NS(=O)(=O)c2ccccc2)c(C)c1 (centres unmarked) [Compound 6, N-(benzenesulfonyl)-2-[(2,4,6-trimethylphenyl)methyl]isoindoline-1-carboxamide] |  | +++ (“+++” means <3 uM) |  |
| Cc1cc(C)c(CCn2nc(C(C)(C)C)cc2C(=O)NS(=O)(=O)c2cccc(N)c2)c(C)c1 [Compound 7, N-(3-aminophenyl)sulfonyl-5-tert-butyl-2-[2-(2,4,6-trimethylphenyl)ethyl]pyrazole-3-carboxamide] |  | +++ (“+++” means <3 uM) |  |
